In BindingDB's records for PubMed 33548635 (University of Aveiro, 2021):

Experiments:
[1] = target: T1, Amyloid-beta precursor protein (Homo sapiens, UniProt P05067); test: Inhibition of amyloid beta 40 secretion transfected in human H4 cells incubated for 20 to 24 hrs by LPECL assay
[2] = target: T1, Amyloid-beta precursor protein; test: Inhibition of amyloid beta 42 secretion transfected in human H4 cells incubated for 20 to 24 hrs by LPECL assay

T1 sequence (P05067 whole entry): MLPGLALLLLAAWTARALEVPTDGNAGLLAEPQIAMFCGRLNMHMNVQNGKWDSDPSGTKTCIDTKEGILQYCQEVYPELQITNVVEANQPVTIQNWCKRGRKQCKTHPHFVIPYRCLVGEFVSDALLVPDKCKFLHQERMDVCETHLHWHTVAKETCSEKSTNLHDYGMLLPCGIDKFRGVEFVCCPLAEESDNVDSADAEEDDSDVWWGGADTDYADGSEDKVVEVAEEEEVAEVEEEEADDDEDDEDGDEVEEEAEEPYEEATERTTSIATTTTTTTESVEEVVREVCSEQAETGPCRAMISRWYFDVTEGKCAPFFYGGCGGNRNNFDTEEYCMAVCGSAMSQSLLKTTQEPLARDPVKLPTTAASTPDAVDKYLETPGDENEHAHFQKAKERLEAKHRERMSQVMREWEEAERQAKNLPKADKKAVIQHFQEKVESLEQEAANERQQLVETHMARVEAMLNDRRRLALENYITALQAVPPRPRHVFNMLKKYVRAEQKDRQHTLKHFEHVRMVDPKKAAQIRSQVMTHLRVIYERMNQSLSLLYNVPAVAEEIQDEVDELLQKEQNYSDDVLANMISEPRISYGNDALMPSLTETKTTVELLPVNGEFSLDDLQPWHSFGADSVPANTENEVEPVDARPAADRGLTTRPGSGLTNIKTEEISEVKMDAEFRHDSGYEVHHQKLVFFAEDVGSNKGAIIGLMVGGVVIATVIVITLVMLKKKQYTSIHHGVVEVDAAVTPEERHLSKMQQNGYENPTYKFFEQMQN

Structure (SMILES) | IC50 [1] [µM] | IC50 [2] [µM]
COc1cc(/C=C/c2cc(/C=C/c3ccc(OCC(=O)OC(C)(C)C)c(OC)c3)on2)ccc1OCC(=O)OC(C)(C)C | > 40 | > 40
COc1cc(/C=C/c2cc(/C=C/c3ccc(OCC(=O)O)c(OC)c3)on2)ccc1OCC(=O)O | 14.1 | > 40
COc1cc(/C=C/c2cc(/C=C/c3ccc(O)c(OC)c3)n(-c3ccc([N+](=O)[O-])cc3)n2)ccc1O | 6.2 | 
COc1cc(/C=C/c2cc(/C=C/c3ccc(O)c(OC)c3)n(-c3ccc(Cl)nn3)n2)ccc1O | 5.4 | 4.8
COc1cc(/C=C/c2cc(/C=C/c3ccc(O)c(OC)c3)n(-c3cc(Cl)cc(Cl)c3)n2)ccc1O | 6.3 | 3.5
COc1cc(/C=C/c2cc(/C=C/c3ccc(O)c(OC)c3)[nH]n2)ccc1O [4-(2-(5-(4-hydroxy-3-methoxystyryl)-1H-pyrazol-3-yl)vinyl)-2-methoxyphenol] | 9.7 | 8.7

Second part, the compound after the results:

IC50 [1] [µM] | IC50 [2] [µM] | Structure (SMILES)
11.3 | 14.2 | COc1cc(/C=C/c2cc(/C=C/c3ccc(O)c(OC)c3)n(-c3ccccc3)n2)ccc1O
15.1 | 14.2 | COc1cc(/C=C/c2cc(/C=C/c3ccc(O)c(OC)c3)n(-c3cccc([N+](=O)[O-])c3)n2)ccc1O
11.5 | 15.3 | COc1cc(/C=C/c2cc(/C=C/c3ccc(O)c(OC)c3)n(Cc3ccccc3)n2)ccc1O
8.7 | 5 | COc1cc(/C=C/c2cc(/C=C/c3ccc(O)c(OC)c3)n(-c3ccc(C)cc3)n2)ccc1O
6.9 | 4.4 | COc1cc(/C=C/c2cc(/C=C/c3ccc(O)c(OC)c3)n(-c3ccc(C(C)C)cc3)n2)ccc1O
10.4 | 9 | COc1cc(/C=C/c2cc(/C=C/c3ccc(O)c(OC)c3)n(C)n2)ccc1O
17.8 | 17.3 | COc1cc(/C=C/c2cc(/C=C/c3ccc(O)c(OC)c3)n(CCO)n2)ccc1O
7.4 | 6.8 | COc1cc(/C=C/c2cc(/C=C/c3ccc(O)c(OC)c3)on2)ccc1O [4-((E)-2-{3-[(E)-2-(4-hydroxy-3-methoxyphenyl)vinyl]isoxazol-5-yl}vinyl)-2-methoxyphenol]
